US8383088B2, “Coumestan-like antioxidants and UV absorbants” (BASF SE, priority 2007, dated 2013)

assay: DPPH assay of antioxidative (antiradical) activity; conditions: measured in EC50 and 1/EC50 values
From the text: For tests of antioxidative activity, the DPPH assay is used. DPPH (2,2-Diphenyl-1-picrylhydrazyl) is a stable radical, which absorbs in its radical form at 515 nm. Upon reduction by an antioxidant (AH), the absorption disappears:
The rate of reaction (1) can be rather different for different antioxidants. In the case of the vitamins C and E, the equilibrium is reached in several minutes, however for other antioxidants it may also take hours. In the test, the ratio of the molar concentrations of the antioxidant and DPPH is varied (this ratio is named “EC”=efficient concentration), and the concentration of DPPH in the equilibrium state is measured for each ratio. Antiradical activity is defined as the amount of antioxidant necessary to decrease the initial DPPH-concentration by 50%, and is characterized by the so-called EC50 value. The smaller the EC50 value, the more efficient is the antioxidant. Thus, the inverse, 1/EC50, can be used to quantify the antiradical power.
Solutions of DPPH and the antioxidants in ethanol are prepared separately and added together for starting the reaction (0.5 cm^3 of a 250 μM antioxidant solution is added to 2.5 cm^3 of a 100 μM DPPH solution). The absorption is measured using a Perkin Elmer Lambda 20 spectrophotometer.

Row | Structure (SMILES) | antioxidant/radical power compared to state-of-the-art antioxidants (101) and (102)
1 | COc1c(O)c(O)cc2c1oc1cc(C)oc(=O)c12 [Compound A-1, 7,8-dihydroxy-6-methoxy-3-methyl-1H-pyrano[4,3-b]benzofuran-1-one] | significantly higher antioxidant/radical power
2 | Cc1cc2oc3cc(O)c(O)cc3c2c(=O)o1 [Compound A-2, 7,8-dihydroxy-3-methyl-1H-pyrano[4,3-b]benzofuran-1-one] | significantly higher antioxidant/radical power
3 | Cl.NCCCCCc1cc2oc3cc(O)c(O)cc3c2c(=O)o1 [Compound A-23] | significantly higher antioxidant/radical power
